Like-named read-outs stand apart in the source and are kept apart here.
What was measured:
solid tumour lines = conditions: other studies; cited from earlier work
AA8 cells = test: Growth inhibition in vitro, AA8; assay type: cell-based, Chinese hamster
Procedure: (§1) Representative examples of compounds of the invention were tested for biological activity against tumors. Compounds 1 to 6 and 14 to 21, prepared as described above, were tested for their ability to inhibit growth in vitro of cells of the wild-type murine leukaemia cell line P388, and the cell line AA8 which is derived from Chinese hamster ovary cells. For each compound, the IC50, ie. the concentration of compound which inhibited cell growth in treated cultures to 50% of that of controls, was determined, using means of three determinations. In addition, a hypersensitivity factor was determined by comparing activity of the compounds against AA8 cells to activity against UV4. The latter cell line is deficient in aspects of the excision repair pathway for removing DNA adducts, and is hypersensitive to DNA-alkylating agents, especially interstrand crosslinking agents. Previous work has shown that the ratio of IC50 s determined in the wild-type AA8 and mutant UV4 lines (the hypersensitivity factor HF) is a determinant of the mode of cell killing by alkylating agents (Palmer, B. D. et al, J. Med. Chem., 1990 33 112-121; Wilson, W. R. et al, J. Med. Chem., 1989 32 31-38). Compounds with HFs of ca. 1 are unlikely to kill cells via DNA alkylation events. Compounds which show high HF values are likely to form bulky adducts or cross-links,with the latter being especially likely for compounds showing the highest HF values (>ca. 25) (Wilson et al, op. cit.).
(§2) Cell lines were maintained in exponential growth phase by subculturing in RPMI 1640 (P338) or Alpha MEM (AA8, UV4) containing 10% fetal calf serum, as previously described (Palmer et al, op.cit.; Baguley, B. C. and Wilson, W. R., Eur. J. Cancer Clin. Oncol., 1987 23 607-613). IC50 values were determined using log-phase cultures in 96-well microculture plates, and were calculated as the nominal drug concentration required to reduce the cell density to 50% of control values, using 8 control cultures on each microplate. For P388 cultures, drug was present throughout the growth period (72 h), and final cell densities were determined using a minor modification of the MTT method of Mossman (Mossman, T., J. Immunol. Methods, 1983 65 55-63). For AA8 and UV4 cultures, drug exposure was terminated after 18 h by washing three times with fresh medium. Cultures were then grown for a further 72 h before determining cell density by staining with methylene blue (Finlay, G. J. et al, Anal. Biochem., 1984 139 272-277).

AA8 and UV4 cells = test: Hypersensitivity factor (AA8/UV4 IC50 ratio); assay type: cell-based, Chinese hamster; conditions: ratio of IC50s AA8/UV4
Procedure: as §1, §2

S. typhimurium TA98 = test: Bacterial mutagenicity, plate incorporation assay, TA98; conditions: mean ± SD
DNA minor groove = conditions: background; cited from earlier work
S. typhimurium TA102 = test: Bacterial mutagenicity, plate incorporation assay, TA102; conditions: mean ± SD
S. typhimurium TA100 = test: Bacterial mutagenicity, plate incorporation assay, TA100; conditions: for reversion colonies, TA100: mean ± SD
calf thymus DNA [1] = test: Reversible DNA binding by spectrophotometric Scatchard analysis; conditions: 20° C., 0.01M HEPES buffer, pH 7.00
L1210 leukemia = conditions: repeated dose schedule; cited from earlier work
P338 murine leukaemia = assay type: in vivo, mice
[2] = test system: Saccharomyces cerevisiae strain D5
P388 cells = test: Growth inhibition in vitro, P388 leukaemia; assay type: cell-based, murine; conditions: P388 cells, 72 h, MTT, read-out: IC50
Procedure: as §1, §2

calf thymus DNA [3] = test: Rate of alkylation of calf thymus DNA by increase in DNA-bound fluorescence; assay type: biochemical; design: unit not given here
S. typhimurium strains = conditions: overall
linearized pSV2gpt DNA = test: DNA crosslinking assay (agarose gel electrophoresis of linearized plasmid); assay type: biochemical; conditions: 2 h at 30° C., TE-80 buffer pH 8
Procedure: The ability of representative compounds of the invention to bind to and cross-link DNA was examined. This was carried out by agarose gel electrophoresis of plasmid DNA using linearized pSV2gpt DNA (Tindall, K. R. and Stankowski, L. F.; Mutation Research, 1989 220 241-245) and the method reported by Valu et al, 1990, op.cit. Briefly, linearized pSV2gpt DNA (1 μL of a 1 mg/mL solution) was incubated with drug in TE-80 buffer (10 mM Tris.HCl, 1 mM EDTA at pH 8), shielded from ambient light, for 2 h at 30° C., then denatured by the addition of […] of 1% sodium dodecyl sulfate and 10 μL of 50 mM methylmercury hydroxide and incubated for a further 30 min at 20° C. in the dark. Renaturation of drug-treated DNA samples was carried out by incubation with 2.5 μL of 2-mercaptoethanol for 1 h. Samples were prepared for electrophoresis by the addition of 0.1 mg/mL bromophenol blue, 0.5 μg/mL ethidium bromide and 5 μL of 40% sucrose. Electrophoresis was carried out at 120V in 89 mM tris/borate buffer at pH 8 containing 2 mM EDTA and 0.5 μg/mL ethidium bromide. DNA was visualized using 302 nm trans-illumination, and was photographed using Polaroid type 55 film and a Wratten 3A filter.
After drug treatment, DNA is denatured to the single stranded form, which runs as a lower band in the gels (see lanes 1 and 2 in FIG. 1). Cross-linking by the drugs is evidenced by the appearance of increasing amounts of renatured, double stranded DNA, as shown by the upper band in the gels, corresponding to the band for untreated DNA seen in lane 1.

[4] = 80 μg/plate, square brackets: toxicity becoming apparent
[5] = 40 μg/plate, square brackets: toxicity becoming apparent
[6] = 120 μg/plate, square brackets: toxicity becoming apparent

Row | Structure (SMILES) | Hypersensitivity factor (AA8 and UV4 cells) | reversion colonies, TA98 (S. typhimurium TA98; 4 μg/plate) | reversion colonies, TA98 (S. typhimurium TA98; 10 μg/plate) | reversion colonies, TA98 (S. typhimurium TA98; 20 μg/plate) | reversion colonies, TA98 (S. typhimurium TA98; 40 μg/plate) | reversion colonies, TA98 (S. typhimurium TA98; [4]) | reversion colonies, TA102 (S. typhimurium TA102; 4 μg/plate) | reversion colonies, TA102 (S. typhimurium TA102; 10 μg/plate) | reversion colonies, TA102 (S. typhimurium TA102; 20 μg/plate) | reversion colonies, TA102 (S. typhimurium TA102; [5]) | reversion colonies, TA102 (S. typhimurium TA102; [4]) | reversion colonies, TA100 (S. typhimurium TA100; 4 μg/plate) | reversion colonies, TA100 (S. typhimurium TA100; 10 μg/plate) | reversion colonies, TA100 (S. typhimurium TA100; 20 μg/plate) | reversion colonies, TA100 (S. typhimurium TA100; 40 μg/plate) | reversion colonies, TA100 (S. typhimurium TA100; 80 μg/plate) | Site size (Number of nucleotide residues) (calf thymus DNA [1]) [nucleotide residues] | also measured
1 | CN1CCN(c2ccc3nc(-c4ccc5nc(-c6ccc(O)cc6)[nH]c5c4)[nH]c3c2)CC1 [Pibenzimol, reference compound] | about unity | 59 ± 3 | 64 ± 8 | 55 ± 6 | 61 ± 5 | 62 ± 9 | 275 ± 12 | 277 ± 1 | 301 ± 3 | 377 ± 49 | 397 ± 10 | 188 ± 11 | 191 ± 7 | 179 ± 6 | 168 ± 13 | 178 ± 11 | 2.4 | cytotoxicity in solid tumour lines (solid tumour lines): very low cytotoxicity; activity against the AA8 cell line (AA8 cells; compared with P388, shorter exposure time): much less active; binding to DNA minor groove (DNA minor groove): binds to regions of the minor groove rich in adenine and thymine bases; mutagenicity in TA100 (S. typhimurium TA100; statistical analysis): no statistically significant mutagenic response in TA100; in vivo activity against L1210 leukemia (L1210 leukemia): moderate in vivo activity; in vivo antitumour activity (P338 murine leukaemia; P388, single-dose protocol): not active against P388 using the single-dose protocol; petite (mitochondrial) mutagenesis [2]: not active in this system; IC50 (P388 cells; Mus musculus): ~1000 nM
2 | CN1CCN(c2ccc3nc(-c4ccc5nc(CCCCCCc6ccc(N(CCCl)CCCl)cc6)[nH]c5c4)[nH]c3c2)CC1 [Compound 6, 2-[2-[6-[4-(N,N-bis(2-chloroethyl)amino)phenyl]hexyl]-5-benzimidazolyl]-5-(1-methyl-4-piperazinyl)benzimidazole] | 20 | 65 ± 10 | 69 ± 7 | 68 ± 8 | 69 ± 9 | 96 ± 5 | 271 ± 31 | 386 ± 10 | 342 ± 14 | 372 ± 19 | 336 ± 19 | 160 ± 13 | 136 ± 0 | 156 ± 29 | 144 ± 10 | 142 ± 10 | 2.4 | IC50 (AA8 cells; AA8 cells, 18 h exposure, then 72 h growth, methylene blue, read-out: IC50): 400 nM; reversion colonies, TA98 (S. typhimurium TA98; [6]): 75 ± 3; Rate constant for alkylation (calf thymus DNA [3]): 9.64 × 10^4; reversion colonies, TA102 (S. typhimurium TA102; [6]): 353 ± 34; reversion colonies, TA100 (S. typhimurium TA100; [6]): 157 ± 14; Optimal dose (P338 murine leukaemia; single i.p. dose): 8.9 mg/kg; % Increase in lifespan (P338 murine leukaemia; single i.p. dose 24 h after tumour inoculation, at optimal dose (mg/kg: 1 30; 2 30; 3 13.3; 4 3.9; 5 5.9; 6 8.9)): 23%; petite (mitochondrial) mutagenesis ([2]; yeast strain D5, in words): showed activity, albeit weak; IC50 (P388 cells): 60 nM; bacterial mutagenicity (S. typhimurium strains): lower bacterial mutagenicity; Cross-linking (linearized pSV2gpt DNA): Yes and crosslinked DNA
